One test deals with human platelet rich plasma. The experiment in a line: Inhibition of human platelet aggregation, 96-well assay. Type of test: cell-based. To be noted: ADP-induced aggregation, human platelet rich plasma, 96-well plates, AUC of absorbance over 20 minutes. Here is the method:
Inhibition of Human Platelet Aggregation
Alternatively to a binding assay which measures a compound's ability to bind to the P2Y12 receptor, the effect on cellular function was also determined. This ability of the compound was evaluated in two platelet aggregation assays: in 96-well plates and with the “Born”-method using single cuvettes.
Whole blood was collected from healthy volunteers using 20 ml syringes containing 2 ml of ACD-A Aqua-Citrat-Dextrose-A, Fresenius). The anticoagulated whole blood was transferred into 15 ml polypropylene conical tubes (10 ml per tube). The tubes were centrifuged for 15 minutes at 150×g at RT without using the centrifuge brake. This procedure leads to a pellet of cellular components and a supernatant of platelet rich plasma (PRP). The PRP layer was collected from each tube and pooled for each donor. To avoid carry over of cellular components following centrifugation, approximately 5 ml of PRP was left in the tube. The platelet concentration was determined using a Coulter Counter.
The 15 ml tubes containing the pellet of cellular components were centrifuged again for 10 minutes at 1940×g. This pelleted out most particulate blood constituents remaining, leaving a layer of Platelet Poor Plasma (PPP). The PPP was collected for each donor. The PRP layer, previously set aside, was diluted with PPP to a final concentration of approximately 3×E8 platelets/ml with the PPP.
The human platelet aggregation assay is performed in 96-well plates using a microtiter plate reader (SpectraMax Plus 384 with SoftMax Pro software from Molecular Devices). In the plate 15 μl of test compound at 10× final concentration in NaCl is mixed with 120 μl fresh PRP and incubated for 5 minutes. Following that incubation period, 15 μl of 40 μM ADP is added to the reaction mix. This addition of ADP is sufficient to induce aggregation in the absence of an inhibitor. The plates are then transferred to the microplate reader and aggregation is measured over 20 minutes. The instrument settings include:
Absorbance at 650 nm, run time 20 minutes with readings in 1-minute intervals and 50 seconds shaking between readings all performed at 37° C.
Broadly, the IC50 is the concentration at which inhibition is half-maximal. With `CCOC(=O)N1CCN(C(=O)[C@H](CCC(=O)O)NC(=O)c2cc(OCC(=O)N3CC(F)(F)C[C@H]3C(=O)NC3CC3)n(-c3ccccc3)n2)CC1` [Example 165, 4-[(S)-4-Carboxy-2-({5-[2-((S)-2-cycloproylcarbamoyl-4,4-difluoro-pyrrolidin-1-yl)-2-oxo-ethoxy]-1-phenyl-1H-pyrazole-3-carbonyl}-amino)-butyryl]-piperazine-1-carboxylic acid ethyl ester], the IC50 stood at 340 nM.

In the case of “4-[2-({5-[2-((S)-2-Cyclobutylcarbamoyl-pyrrolidin-1-yl)-2-oxo-ethoxy]-1-phenyl-1H-pyrazole-3-carbonyl}-amino)-acetyl]-piperazine-1-carboxylic acid 2-methoxy-ethyl ester [Example 254]”, the IC50 was determined as 750 nM.

The test is the same for the next values; noted with them: Homo sapiens, Platelet, 20 min.
`C[C@H](NC(=O)c1cc(OCC(=O)N2CCC[C@H]2C(=O)NC2CCC2)n(-c2ccccc2)n1)C(=O)N1CCN(C(=O)OC2CCC2)CC1` [Example 193, 4-[(S)-2-({5-[2-((S)-2-Cyclobutylcarbamoyl-pyrrolidin-1-yl)-2-oxo-ethoxy]-1-phenyl-1H-pyrazole-3-carbonyl}-amino)-propionyl]-piperazine-1-carboxylic acid cyclobutyl ester] yielded an IC50 of 460 nM. Same read-out and setting: with `CCOC(=O)N1CCN(C(=O)[C@H](CC(C)C)NC(=O)c2cc(OCC(=O)N3CCC[C@H]3C(=O)NC3CCC3)n(-c3ccccc3)n2)CC1` [Example 215, 4-[(S)-2-({5-[2-((S)-2-Cyclobutylcarbamoyl-pyrrolidin-1-yl)-2-oxo-ethoxy]-1-phenyl-1H-pyrazole-3-carbonyl}-amino)-4-methyl-pentanoyl]-piperazine-1-carboxylic acid ethyl ester] the figure was 950 nM. In turn, `CCOC(=O)N1CCN(C(=O)[C@H](CCNC(=O)C(F)(F)F)NC(=O)c2cc(OCC(=O)N3CCC[C@H]3C(=O)NC3CCC3)n(-c3ccccc3)n2)CC1` [Example 98, 4-[(S)-2-({5-[2-((S)-2-Cyclobutylcarbamoyl-pyrrolidin-1-yl)-2-oxo-ethoxy]-1-phenyl-1H-pyrazole-3-carbonyl}-amino)-4-(2,2,2-trifluoro-acetylamino)-butyryl]-piperazine-1-carboxylic acid ethyl ester] returned an IC50 of 1810 nM. Still for that read-out and setting: with `CCOC(=O)N1CCN(C(=O)[C@H](CCC(=O)OCC2(CC)COC2)NC(=O)c2cc(OCC(=O)N3CCC[C@H]3C(=O)NC3CCC3)n(-c3ccccc3)n2)CC1` [Example 204, 4-[(S)-2-({5-[2-((S)-2-Cyclobutylcarbamoyl-pyrrolidin-1-yl)-2-oxo-ethoxy]-1-phenyl-1H-pyrazole-3-carbonyl}-amino)-4-(3-ethyl-oxetan-3-ylmethoxycarbonyl)-butyryl]-piperazine-1-carboxylic acid ethyl ester] the figure was 720 nM. `CCOC(=O)N1CCN(C(=O)[C@H](CCC(=O)O)NC(=O)c2cc(O[C@@H](C)C(=O)N3CCC[C@H]3C(=O)NCC(F)(F)F)n(-c3ccccc3)n2)CC1` [Example 70, 4-[(S)-4-Carboxy-2-({5-[(S)-2-((S)-2-(2,2,2-trifluoroethylcarbamoyl)-pyrrolidin-1-yl)-1-methyl-2-oxo-ethoxy]-1-phenyl-1H-pyrazole-3-carbonyl}-amino)-butyryl]-piperazine-1-carboxylic acid ethyl ester] came in with an IC50 of 260 nM. The same measure, in the same setting: for `CCOC(=O)N1CCN(C(=O)[C@H](CCC(=O)O)NC(=O)c2cc(OCC(=O)N3CCC[C@H]3C(=O)N(C)C3CCC3)n(-c3ccccc3)n2)CC1` [Example 22, 4-{(S)-4-Carboxy-2-[(5-{2-[(S)-2-(cyclobutyl-methyl-carbamoyl)-pyrrolidin-1-yl]-2-oxo-ethoxy}-1-phenyl-1H-pyrazole-3-carbonyl)-amino]-butyryl}-piperazine-1-carboxylic acid ethyl ester] the value was 220 nM. `CCOC(=O)N1CCN(C(=O)[C@H](CCC(=O)O)NC(=O)c2cc(OCC(=O)N3CCC[C@H]3c3nc(C4CC4)no3)n(-c3ccccc3)n2)CC1` [Example 180, 4-{(S)-4-Carboxy-2-[(5-{2-[(S)-2-(3-cyclopropyl-[1,2,4]oxadiazol-5-yl)-pyrrolidin-1-yl]-2-oxo-ethoxy}-1-phenyl-1H-pyrazole-3-carbonyl)-amino]-butyryl}-piperazine-1-carboxylic acid ethyl ester]: the IC50 is 450 nM.

On to `O=C(O)CC[C@H](NC(=O)c1cc(OCC(=O)N2CCC[C@H]2C(=O)NC2CCC2)n(-c2ccccc2)n1)C(=O)N1CCN(C(=O)Oc2ccccc2)CC1` [Example 156, 4-[(S)-4-Carboxy-2-({5-[2-((S)-2-cyclobutylcarbamoyl-pyrrolidin-1-yl)-2-oxo-ethoxy]-1-phenyl-1H-pyrazole-3-carbonyl}-amino)-butyryl]-piperazine-1-carboxylic acid phenyl ester], for which 1080 nM corresponded to half-maximal inhibition (IC50).

As to `O=C(NCC(=O)N1CCN(C(=O)[C@H]2C[C@@H]2F)CC1)c1cc(OCC(=O)N2CCC[C@H]2C(=O)NC2CCC2)n(-c2ccccc2)n1` [Example 245, 5-[2-((S)-2-Cyclobutylcarbamoyl-pyrrolidin-1-yl)-2-oxo-ethoxy]-1-phenyl-1H-pyrazole-3-carboxylic acid {2-[4-((1R,2S)-2-fluoro-cyclopropanecarbonyl)-piperazin-1-yl]-2-oxo-ethyl}-amide], the IC50 turned out to be 800 nM. `CCCCOC(=O)NC1CCN(C(=O)[C@H](CCC(=O)O)NC(=O)c2cc(OCC(=O)N3CCC[C@H]3C(=O)NC3CCC3)n(-c3ccccc3)n2)C1` (stereo partly drawn) [Example 108, (S)-5-(3-Butoxycarbonylamino-pyrrolidin-1-yl)-4-({5-[2-((S)-2-cyclobutylcarbamoyl-pyrrolidin-1-yl)-2-oxo-ethoxy]-1-phenyl-1H-pyrazole-3-carbonyl}-amino)-5-oxo-pentanoic acid]: the IC50 is 1880 nM. Still for that read-out and setting: for `CCOC(=O)N1CCN(C(=O)[C@H](CCC(=O)O)NC(=O)c2cc(O[C@@H](C)C(=O)N3CCC[C@H]3C(=O)NC3CC3)n(-c3ccccc3)n2)CC1` [Example 66, 4-[(S)-4-Carboxy-2-({5-[(S)-2-((S)-2-cyclopropylcarbamoyl-pyrrolidin-1-yl)-1-methyl-2-oxo-ethoxy]-1-phenyl-1H-pyrazole-3-carbonyl}-amino)-butyryl]-piperazine-1-carboxylic acid ethyl ester] the value was 330 nM; for `CCOC(=O)N1CCN(C(=O)[C@H](CC(=O)O)NC(=O)c2cc(OCC(=O)N3CCC[C@H]3C(=O)NC3CC3)n(-c3ccccc3)n2)CC1` [Example 56, 4-[(S)-3-Carboxy-2-({5-[2-((S)-2-cyclopropylcarbamoyl-pyrrolidin-1-yl)-2-oxo-ethoxy]-1-phenyl-1H-pyrazole-3-carbonyl}-amino)-propionyl]-piperazine-1-carboxylic acid ethyl ester], 60 nM; for `CCOC(=O)N1CCN(C(=O)[C@H](CCC(=O)O)NC(=O)c2cc(OCC(=O)N3CCC[C@H]3C(=O)NC3CCC3)n(-c3ccccc3)n2)[C@@H](C)C1` [Example 153, (S)-4-[(S)-4-Carboxy-2-({5-[2-((S)-2-cyclobutylcarbamoyl-pyrrolidin-1-yl)-2-oxo-ethoxy]-1-phenyl-1H-pyrazole-3-carbonyl}-amino)-butyryl]-3-methyl-piperazine-1-carboxylic acid ethyl ester], 430 nM.

The record behind these values is patent publication US8426420B2, “Heterocyclic pyrazole-carboxamidesas P2Y12 antagonists” (Sanofi, priority 2007, dated 2013).
